Test results from patent US10168342B2, “Lipid probes and uses thereof” (THE SCRIPPS RESEARCH INSTITUTE, priority 2015, dated 2019).
Where two headings read alike, the source gives them in different places.

How the values were obtained:
[1] = biological target: T1, AEA-DA lipid probe targets in Neuro2a cells (Mus musculus, UniProt O70252); conditions: for SILAC ratio, HMOX2 (P30519): Neuro2a cells, AEA-DA probe
T1 sequence (O70252 1-315): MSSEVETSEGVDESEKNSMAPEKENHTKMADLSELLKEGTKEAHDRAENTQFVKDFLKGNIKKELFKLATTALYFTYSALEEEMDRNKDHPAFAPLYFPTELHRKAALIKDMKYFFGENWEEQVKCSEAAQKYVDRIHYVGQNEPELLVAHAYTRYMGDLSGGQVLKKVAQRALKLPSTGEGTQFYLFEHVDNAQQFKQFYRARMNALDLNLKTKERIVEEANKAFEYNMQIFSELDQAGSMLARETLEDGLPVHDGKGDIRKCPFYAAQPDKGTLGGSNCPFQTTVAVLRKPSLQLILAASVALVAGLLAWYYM

[2] = biological target: AEA-DA lipid probe targets in Neuro2a cells (Mus musculus, UniProt P15331)
[3] = biological target: T2, AEA-DA lipid probe targets in Neuro2a cells (Mus musculus, UniProt Q8C7K6)
T2 sequence (Q8C7K6 23-495): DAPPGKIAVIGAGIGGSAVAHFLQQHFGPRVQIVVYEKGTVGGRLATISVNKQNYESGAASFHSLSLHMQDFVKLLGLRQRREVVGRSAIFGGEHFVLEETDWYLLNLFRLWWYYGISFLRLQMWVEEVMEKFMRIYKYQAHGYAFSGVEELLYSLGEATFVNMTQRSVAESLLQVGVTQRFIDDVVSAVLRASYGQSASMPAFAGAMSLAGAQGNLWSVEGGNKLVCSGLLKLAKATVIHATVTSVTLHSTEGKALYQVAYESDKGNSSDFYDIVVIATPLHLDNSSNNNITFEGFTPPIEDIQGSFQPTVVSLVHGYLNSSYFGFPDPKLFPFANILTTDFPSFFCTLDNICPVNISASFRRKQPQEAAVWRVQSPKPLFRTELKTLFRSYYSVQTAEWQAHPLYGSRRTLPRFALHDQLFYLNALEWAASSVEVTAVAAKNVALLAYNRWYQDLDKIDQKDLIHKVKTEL

[4] = biological target: T3, AEA-DA lipid probe targets in Neuro2a cells (Mus musculus, UniProt Q8CAQ8)
T3 sequence (Q8CAQ8 34-757): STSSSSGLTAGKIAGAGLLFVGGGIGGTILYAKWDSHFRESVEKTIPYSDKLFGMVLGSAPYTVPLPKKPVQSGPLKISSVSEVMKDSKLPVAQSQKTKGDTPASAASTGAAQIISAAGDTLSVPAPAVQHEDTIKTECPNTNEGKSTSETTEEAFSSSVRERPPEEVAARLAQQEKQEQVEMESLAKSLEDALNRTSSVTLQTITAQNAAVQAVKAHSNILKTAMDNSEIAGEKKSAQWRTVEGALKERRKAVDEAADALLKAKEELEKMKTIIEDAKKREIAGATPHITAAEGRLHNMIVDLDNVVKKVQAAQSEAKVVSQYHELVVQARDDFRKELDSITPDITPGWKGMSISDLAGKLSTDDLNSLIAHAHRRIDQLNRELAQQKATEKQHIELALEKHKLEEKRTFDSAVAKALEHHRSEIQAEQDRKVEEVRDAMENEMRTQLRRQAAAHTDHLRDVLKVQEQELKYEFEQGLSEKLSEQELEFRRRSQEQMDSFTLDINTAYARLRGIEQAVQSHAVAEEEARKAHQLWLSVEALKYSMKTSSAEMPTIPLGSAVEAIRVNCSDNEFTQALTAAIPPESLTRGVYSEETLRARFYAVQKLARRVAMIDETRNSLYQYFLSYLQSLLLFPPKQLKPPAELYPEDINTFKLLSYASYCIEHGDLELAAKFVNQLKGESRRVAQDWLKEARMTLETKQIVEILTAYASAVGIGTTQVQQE

[5] = biological target: AEA-DA lipid probe targets in Neuro2a cells (Mus musculus, UniProt Q8JZU2)
[6] = biological target: T4, AEA-DA lipid probe targets in Neuro2a cells (Mus musculus, UniProt Q91X78)
T4 sequence (Q91X78 1-348): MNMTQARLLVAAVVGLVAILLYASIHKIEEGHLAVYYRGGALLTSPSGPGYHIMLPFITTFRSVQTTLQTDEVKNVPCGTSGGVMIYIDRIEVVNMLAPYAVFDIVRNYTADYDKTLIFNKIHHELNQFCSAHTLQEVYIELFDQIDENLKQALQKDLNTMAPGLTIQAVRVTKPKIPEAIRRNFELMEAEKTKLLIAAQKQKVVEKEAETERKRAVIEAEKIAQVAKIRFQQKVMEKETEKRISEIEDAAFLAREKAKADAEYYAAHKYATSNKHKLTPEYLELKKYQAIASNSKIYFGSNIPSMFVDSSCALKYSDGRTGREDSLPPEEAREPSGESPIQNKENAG

[7] = biological target: T5, AEA-DA lipid probe targets in Neuro2a cells (Mus musculus, UniProt Q922Q8)
T5 sequence (Q922Q8 1-307): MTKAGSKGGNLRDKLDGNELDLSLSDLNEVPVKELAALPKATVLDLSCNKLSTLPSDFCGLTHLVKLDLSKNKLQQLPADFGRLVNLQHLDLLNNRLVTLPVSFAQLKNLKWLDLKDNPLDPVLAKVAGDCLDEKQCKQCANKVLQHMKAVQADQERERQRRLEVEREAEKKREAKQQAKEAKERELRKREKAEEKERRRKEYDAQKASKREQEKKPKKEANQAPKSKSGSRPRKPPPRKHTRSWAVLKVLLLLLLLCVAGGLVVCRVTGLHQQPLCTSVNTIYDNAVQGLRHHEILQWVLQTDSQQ

[8] = test system: AEA-DA lipid probe targets in Neuro2a cells; conditions: for SILAC ratio, GM20425 (E9Q035): AEA-DA probe
[9] = Neuro2a cells, competitor 25 μM
[10] = competitor 25 μM, first Tmpo line (r51)
[11] = competitor 25 μM, second Tmpo line (r55)

AEA-DA lipid probe targets in Neuro2a cells (Mus musculus, UniProt Q8JZU2), sequence (Q8JZU2 14-311): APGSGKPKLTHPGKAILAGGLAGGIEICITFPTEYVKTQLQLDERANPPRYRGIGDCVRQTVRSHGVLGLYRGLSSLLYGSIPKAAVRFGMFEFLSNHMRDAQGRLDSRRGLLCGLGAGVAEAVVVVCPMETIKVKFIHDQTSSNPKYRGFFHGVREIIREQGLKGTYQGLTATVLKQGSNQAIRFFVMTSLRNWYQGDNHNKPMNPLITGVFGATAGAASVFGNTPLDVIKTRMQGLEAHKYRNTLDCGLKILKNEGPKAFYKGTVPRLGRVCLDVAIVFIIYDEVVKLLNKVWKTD
AEA-DA lipid probe targets in Neuro2a cells (Mus musculus, UniProt P15331), sequence (P15331 whole entry): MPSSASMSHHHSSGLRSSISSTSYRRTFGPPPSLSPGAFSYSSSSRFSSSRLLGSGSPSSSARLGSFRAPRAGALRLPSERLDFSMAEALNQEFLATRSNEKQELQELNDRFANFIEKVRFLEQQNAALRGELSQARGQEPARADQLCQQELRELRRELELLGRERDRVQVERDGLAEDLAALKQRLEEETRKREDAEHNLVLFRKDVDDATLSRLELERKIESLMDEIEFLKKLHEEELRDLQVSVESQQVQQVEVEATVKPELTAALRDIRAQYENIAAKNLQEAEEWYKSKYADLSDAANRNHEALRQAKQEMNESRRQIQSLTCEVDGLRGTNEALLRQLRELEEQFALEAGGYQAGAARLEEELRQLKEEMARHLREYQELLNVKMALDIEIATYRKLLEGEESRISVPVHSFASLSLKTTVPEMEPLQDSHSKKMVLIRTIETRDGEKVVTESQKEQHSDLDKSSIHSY

CCCCC/C=C\C/C=C\C/C=C\C/C=C\CCCC(=O)NCCO [AEA, anandamide, reference compound]
SILAC ratio, HMOX2 (P30519) ([1]; competitor 200 μM): 3.2 | SILAC ratio, Hmox2 ([1]; competitor 200 μM): 3.2 | SILAC ratio Prph ([2]; competitor 200 μM): 1.0 | SILAC ratio Pcyox11 ([3]; competitor 200 μM): 1.5 | SILAC ratio Immt ([4]; competitor 200 μM): 1.2 | SILAC ratio Slc25a1 ([5]; competitor 200 μM): 1.2 | SILAC ratio Erlin1 ([6]; competitor 200 μM): 1.7 | SILAC ratio Lrrc59 ([7]; competitor 200 μM): 1.6 | competition of AEA-DA labeling by lipid competitor ([8]; Neuro2a cells, 200 μM): competed with several targets | SILAC ratio, GM20425 (E9Q035) ([8]; Neuro2a cells, competitor 200 μM): 2.3 | SILAC ratio Akr1c12 ([8]; competitor 200 μM): 1.8 | SILAC ratio Uncharacterized ([8]; competitor 200 μM): 1.7 | SILAC ratio, Akr1b10 ([8]; competitor 200 μM): 4.5 | SILAC ratio, Gm20425 ([8]; competitor 200 μM): 2.3 | SILAC ratio, Gm20671 ([8]; competitor 200 μM): 1.8 | SILAC ratio, Tmpo ([8]; competitor 200 μM, first Tmpo line (r51)): 2.0 | SILAC ratio, Tmpo ([8]; competitor 200 μM, second Tmpo line (r55)): 1.9

O=C(/C=C/c1cccnc1)NCCCCC1CCN(C(=O)c2ccccc2)CC1 [FK-866, reference compound]
SILAC ratio, HMOX2 (P30519) ([1]; competitor 25 μM): 1.0 | SILAC ratio, Hmox2 ([1]; competitor 25 μM): 1.0 | SILAC ratio Prph ([2]; competitor 25 μM): 1.2 | SILAC ratio Pcyox11 ([3]; competitor 25 μM): 1.3 | SILAC ratio Immt ([4]; competitor 25 μM): 1.1 | SILAC ratio Slc25a1 ([5]; competitor 25 μM): 1.2 | SILAC ratio Erlin1 ([6]; competitor 25 μM): 1.0 | SILAC ratio Lrrc59 ([7]; competitor 25 μM): 1.2 | competition of probe labeling of NAMPT and ABCB1B ([8]; Neuro2a cells, AEA-DA 5 μM, drug 25 μM): competed probe-labeling | SILAC ratio, GM20425 (E9Q035) [8, 9]: 1.2 | SILAC ratio Akr1c12 ([8]; competitor 25 μM): 1.3 | SILAC ratio H2-K1 ([8]; competitor 25 μM): 1.0 | SILAC ratio Nup205 ([8]; competitor 25 μM): 0.9 | SILAC ratio Uncharacterized ([8]; competitor 25 μM): 1.3 | SILAC ratio, Gm20425 ([8]; competitor 25 μM): 1.2 | SILAC ratio, Tmpo [8, 10]: 1.0 | SILAC ratio, Tmpo [8, 11]: 1.1

CN1CCN(C(=O)c2c(-c3ccccc3)c3cc([N+](=O)[O-])ccc3n2C)CC1 [KML110, (1-Methyl-5-nitro-3-phenyl-1H-indol-2-yl)(4-methylpiperazin-1-yl)methanone]
SILAC ratio, Hmox2 ([1]; competitor 25 μM): 1.5 | SILAC ratio Prph ([2]; competitor 25 μM): 1.1 | SILAC ratio Pcyox11 ([3]; competitor 25 μM): 2.0 | SILAC ratio Immt ([4]; competitor 25 μM): 1.3 | SILAC ratio Slc25a1 ([5]; competitor 25 μM): 1.2 | SILAC ratio Lrrc59 ([7]; competitor 25 μM): 1.3 | SILAC ratio Akr1c12 ([8]; competitor 25 μM): 1.2 | SILAC ratio H2-K1 ([8]; competitor 25 μM): 1.6 | SILAC ratio Nup205 ([8]; competitor 25 μM): 1.2 | SILAC ratio Uncharacterized ([8]; competitor 25 μM): 1.1 | SILAC ratio, Gm20425 ([8]; competitor 25 μM): 1.5 | SILAC ratio, Gm20671 ([8]; competitor 25 μM): 1.4 | SILAC ratio, Tmpo [8, 10]: 1.5 | SILAC ratio, Tmpo [8, 11]: 1.5

CN1CCN(C(=O)c2[nH]c3ccc([N+](=O)[O-])cc3c2-c2ccccc2)CC1 [MJN228, (4-Methylpiperazin-1-yl)(5-nitro-3-phenyl-1H-indol-2-yl)methanone]
SILAC ratio, HMOX2 (P30519) ([1]; competitor 25 μM): 1.4 | SILAC ratio, Hmox2 ([1]; competitor 10 μM): 1.1 | SILAC ratio, Hmox2 ([1]; competitor 25 μM): 1.4 | SILAC ratio, Hmox2 ([1]; competitor 50 μM): 1.3 | SILAC ratio, Hmox2 ([1]; competitor 100 μM): 1.7 | SILAC ratio Prph ([2]; competitor 10 μM): 1.0 | SILAC ratio Prph ([2]; competitor 25 μM): 1.2 | SILAC ratio Prph ([2]; competitor 50 μM): 0.7 | SILAC ratio Prph ([2]; competitor 100 μM): 0.9 | SILAC ratio Pcyox11 ([3]; competitor 10 μM): 1.2 | SILAC ratio Pcyox11 ([3]; competitor 25 μM): 1.8 | SILAC ratio Pcyox11 ([3]; competitor 50 μM): 1.7 | SILAC ratio Pcyox11 ([3]; competitor 100 μM): 2.5 | SILAC ratio Immt ([4]; competitor 10 μM): 1.1 | SILAC ratio Immt ([4]; competitor 25 μM): 1.2 | SILAC ratio Immt ([4]; competitor 50 μM): 1.1 | SILAC ratio Immt ([4]; competitor 100 μM): 1.4 | SILAC ratio Slc25a1 ([5]; competitor 10 μM): 1.2 | SILAC ratio Slc25a1 ([5]; competitor 25 μM): 1.1 | SILAC ratio Slc25a1 ([5]; competitor 50 μM): 1.5 | SILAC ratio Slc25a1 ([5]; competitor 100 μM): 1.5 | SILAC ratio Erlin1 ([6]; competitor 10 μM): 1.4 | SILAC ratio Erlin1 ([6]; competitor 25 μM): 1.1 | SILAC ratio Erlin1 ([6]; competitor 100 μM): 1.1 | SILAC ratio Lrrc59 ([7]; competitor 10 μM): 1.3 | SILAC ratio Lrrc59 ([7]; competitor 25 μM): 1.5 | SILAC ratio Lrrc59 ([7]; competitor 50 μM): 1.5 | SILAC ratio Lrrc59 ([7]; competitor 100 μM): 2.0 | SILAC ratio, GM20425 (E9Q035) [8, 9]: 1.7 | SILAC ratio Nup205 ([8]; competitor 10 μM): 1.0 | SILAC ratio Uncharacterized ([8]; competitor 10 μM): 1.1 | SILAC ratio, Akr1b10 ([8]; competitor 10 μM): 2.1 | SILAC ratio, Gm20425 ([8]; competitor 10 μM): 1.3 | SILAC ratio, Tmpo ([8]; competitor 10 μM, first Tmpo line (r51)): 1.1 | SILAC ratio, Tmpo ([8]; competitor 10 μM, second Tmpo line (r55)): 1.1 | SILAC ratio H2-K1 ([8]; competitor 25 μM): 1.1 | SILAC ratio Nup205 ([8]; competitor 25 μM): 1.2 | SILAC ratio Uncharacterized ([8]; competitor 25 μM): 1.6 | SILAC ratio, Gm20425 ([8]; competitor 25 μM): 1.7 | SILAC ratio, Gm20671 ([8]; competitor 25 μM): 1.4 | SILAC ratio, Tmpo [8, 10]: 1.4 | SILAC ratio, Tmpo [8, 11]: 1.4 | SILAC ratio Nup205 ([8]; competitor 50 μM): 1.1 | SILAC ratio, Akr1b10 ([8]; competitor 50 μM): 2.6 | SILAC ratio, Gm20425 ([8]; competitor 50 μM): 1.7 | SILAC ratio, Tmpo ([8]; competitor 50 μM, first Tmpo line (r51)): 1.4 | SILAC ratio, Tmpo ([8]; competitor 50 μM, second Tmpo line (r55)): 1.3 | SILAC ratio Nup205 ([8]; competitor 100 μM): 1.2 | SILAC ratio Uncharacterized ([8]; competitor 100 μM): 3.0 | SILAC ratio, Akr1b10 ([8]; competitor 100 μM): 3.2 | SILAC ratio, Gm20425 ([8]; competitor 100 μM): 2.9 | SILAC ratio, Tmpo ([8]; competitor 100 μM, first Tmpo line (r51)): 2.1 | SILAC ratio, Tmpo ([8]; competitor 100 μM, second Tmpo line (r55)): 2.0
